Measurements taken from US20120028995A1, “NOVEL COMPOUNDS FOR MEDICAL USE AS PEPTIDASE EFFECTORS” (IMTM GMBH, priority 2010, published 2012).
Like-named read-outs stand apart in the source and are kept apart here.

How the values were obtained:
[1] = biological target: T1, aminopeptidase N (APN), purified recombinant human enzyme (Homo sapiens, UniProt P15144); test: Inhibition of enzymatic activity of aminopeptidase N (fluorogenic substrate hydrolysis); format: biochemical; details: highest test item concentration 25 μM; for IC50: read-out: meas. IC50 (APN)
T1 construct: made in house; host or cells: ECV cells (transfected)
T1 sequence (P15144 whole entry): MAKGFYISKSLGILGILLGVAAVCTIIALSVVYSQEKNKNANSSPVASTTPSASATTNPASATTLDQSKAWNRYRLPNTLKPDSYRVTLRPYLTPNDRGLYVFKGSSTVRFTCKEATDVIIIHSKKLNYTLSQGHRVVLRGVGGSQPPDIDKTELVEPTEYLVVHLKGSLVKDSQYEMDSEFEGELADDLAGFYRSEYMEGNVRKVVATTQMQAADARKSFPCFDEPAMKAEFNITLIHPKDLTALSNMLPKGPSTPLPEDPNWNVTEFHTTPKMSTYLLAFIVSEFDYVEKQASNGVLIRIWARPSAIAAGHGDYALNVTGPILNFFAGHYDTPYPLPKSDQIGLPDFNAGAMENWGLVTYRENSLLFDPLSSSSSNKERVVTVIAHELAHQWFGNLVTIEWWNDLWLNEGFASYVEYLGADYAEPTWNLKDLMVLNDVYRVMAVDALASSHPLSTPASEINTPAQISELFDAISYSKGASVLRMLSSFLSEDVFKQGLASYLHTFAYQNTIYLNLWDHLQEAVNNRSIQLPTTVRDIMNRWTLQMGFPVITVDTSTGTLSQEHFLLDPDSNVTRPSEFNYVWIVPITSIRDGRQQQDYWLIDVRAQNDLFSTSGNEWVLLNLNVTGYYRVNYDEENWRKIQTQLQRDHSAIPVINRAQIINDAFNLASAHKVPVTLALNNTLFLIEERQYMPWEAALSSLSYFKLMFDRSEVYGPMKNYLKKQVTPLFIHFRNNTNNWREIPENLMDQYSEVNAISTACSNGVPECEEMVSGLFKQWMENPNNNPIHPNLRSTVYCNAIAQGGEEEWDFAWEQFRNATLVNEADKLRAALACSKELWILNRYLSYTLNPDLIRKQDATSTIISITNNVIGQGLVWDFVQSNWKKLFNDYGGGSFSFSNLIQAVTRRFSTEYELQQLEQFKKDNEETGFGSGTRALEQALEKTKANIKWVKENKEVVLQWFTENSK
Experimental: The inhibition of the enzymatic activity of aminopeptidase N (APN) was measured by using purified, recombinant human enzyme (purified from transfected ECV cells, final enzyme concentration approx. 1 nM). […] The assay was performed in 0.05M TRIS/HCl puffer pH 7.5, supplemented with 0.05% Triton (v/v), 0.05% BSA (w/v), 2 mM MgCl2.
The aminopeptidase acitivities wer assessed by the hydrolysis of the fluorogenic substrates H-Ala-4-amino-7-methyl coumarine (abbreviation of fluorogenic group AMC; purchased from Bachem) or (Ala-)2-Rhodamine 110 (abbreviation R110). The final substrate concentrations were again 50 and 1 μM, respectively.
(§1) The assay was performed in white microtitre plates for fluorescence measurements. The test items, substrate and enzyme were diluted in assay buffer. The highest test item concentration used was 25 μM. For the calculation of IC50 values, at least 16 log 2-dilutions of each test item were analyzed. As controls, the DPIV activity in the absence of test items as well as the spontaneous hydrolysis of the substrate was determined.
The release of the fluorescent hydrolysis products AMC and R110 was measured as described above for DPIV substrates.

[2] = tested on: T lymphocytes (T cells); test: Suppression of DNA synthesis of PHA-stimulated T lymphocytes; format: cell-based; details: tritium thymidine incorporation, read-out: Supp. DNA Synt. T-cell IC50
Experimental: Peripheral blood mononuclear cells (PBMC) from healthy human volunteers were freshly isolated by density gradient centrifugation. T lymphocytes (T cells) were isolated from PBMC fractions via nylon wool adherence. Both cell populations were cultured in serum free lymphocyte medium (AIMV medium, Invitrogen) and stimulated by addition of 1 μg/ml Phytohemagglutinine for 48 hours in 96 well flat-bottom microtiter plates. Test compounds were added at concentration ranges from 0.1 up to 250 μM over the total assay period.
DNA synthesis of proliferating PBMC was assessed by incorporation of nucleotide analogue bromdesoxyuridine (BrdU) and subsequent detection of BrdU by ELISA technique (Cell Proliferation Biotrak™ ELISA system, GE Health Care) according to the protocol of the manufacturer. DNA synthesis of proliferating T cells was determined by incorporation of radio labelled tritium thymidine and subsequent radio detection.
Data output was based on raw data and calculation of relative proliferation response in relation to PHA-activated T cells in the absence of test compound (100% control). The IC50 value of proliferation suppression was assessed by graphical evaluation.

[3] = biological target: T2, purified, recombinant human DPIV (Homo sapiens, UniProt P27487); test: Inhibition of enzymatic activity of DPIV (fluorogenic substrate hydrolysis); format: biochemical; details: highest test item concentration 25 μM; for IC50: read-out: meas. IC50 (DPIV)
T2 construct: made in house; host or cells: Sf9 insect cells
T2 sequence (P27487 whole entry): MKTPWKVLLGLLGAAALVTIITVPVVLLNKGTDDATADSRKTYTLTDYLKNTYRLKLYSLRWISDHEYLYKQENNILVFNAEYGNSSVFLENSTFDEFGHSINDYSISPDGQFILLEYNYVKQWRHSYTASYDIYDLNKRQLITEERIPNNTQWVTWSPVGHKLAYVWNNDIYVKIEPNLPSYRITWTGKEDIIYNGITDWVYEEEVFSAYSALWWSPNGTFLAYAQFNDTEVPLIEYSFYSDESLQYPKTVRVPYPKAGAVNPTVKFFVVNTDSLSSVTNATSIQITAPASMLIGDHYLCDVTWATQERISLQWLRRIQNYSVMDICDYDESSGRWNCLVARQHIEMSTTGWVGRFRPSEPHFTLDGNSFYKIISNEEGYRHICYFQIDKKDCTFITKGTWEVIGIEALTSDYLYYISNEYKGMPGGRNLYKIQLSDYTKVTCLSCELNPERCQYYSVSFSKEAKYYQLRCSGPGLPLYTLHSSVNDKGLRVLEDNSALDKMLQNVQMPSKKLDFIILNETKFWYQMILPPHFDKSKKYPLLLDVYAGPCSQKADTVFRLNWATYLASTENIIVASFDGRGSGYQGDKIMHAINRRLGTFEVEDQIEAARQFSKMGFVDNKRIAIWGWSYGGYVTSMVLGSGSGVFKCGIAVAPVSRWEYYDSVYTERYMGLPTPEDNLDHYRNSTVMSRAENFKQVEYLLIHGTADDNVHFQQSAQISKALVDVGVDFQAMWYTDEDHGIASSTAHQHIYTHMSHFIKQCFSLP
Experimental: (§2) The inhibition of the enzymatic activity of DPIV and related enzymes was measured by using purified, recombinant human DPIV (purified from transfected Sf9 cells, final enzyme concentration approx. 1 nM) as well as purified, recombinant DP8 and DP9 (purchased from Biomol). The assay was performed in 0.05M TRIS/HCl puffer pH 7.5, supplemented with 0.05% Triton (v/v), 0.05% BSA (w/v), 2 mM MgCl2.
(§3) The enzymatic activity of DPIV was assessed by the hydrolysis of the fluorogenic substrates H-Gly-Pro-4-amino-7-methyl coumarine (abbreviation of fluorogenic group AMC; purchased from Bachem) or (Ala-Pro)2-Rhodamine 110 (abbreviation R110). The final substrate concentrations were 50 μM or 1 μM, respectively.
as §1
(§4) The release of the fluorescent hydrolysis product AMC was measured at an excitation wavelength of 380 nm and an emission wavelength of 460 nm by using a microtitre fluorescence reader immediately after substrate addition as well as after 30, 60 and 120 min. The hydrolysis of the substrate (Ala-Pro)2-Rhodamine 110 was determined at an exitation wavelength of 488 nm and emission wavelength of 530 nm.

[4] = tested on: purified, recombinant DP8 and DP9; test: Inhibition of enzymatic activity of DP8/9; format: biochemical; details: highest test item concentration 25 μM; for IC50: read-out: meas. IC50 (DP8/9)
Experimental: as §2, §3, §1, §4

[5] = biological target: T3, cytosolic aminopeptidase (cAAP) purified from Jurkat cells (Homo sapiens, UniProt P55786); test: Inhibition of enzymatic activity of cytosolic aminopeptidase (cAAP); format: biochemical; details: highest test item concentration 25 μM; for IC50: read-out: meas. IC50 (cAAP)
T3 construct: The cytosolic aminopeptidase (cAAP) was purified from Jurkat cells; endogenous in cells; host or cells: Jurkat cells (enzyme purified from them)
T3 sequence (P55786 whole entry): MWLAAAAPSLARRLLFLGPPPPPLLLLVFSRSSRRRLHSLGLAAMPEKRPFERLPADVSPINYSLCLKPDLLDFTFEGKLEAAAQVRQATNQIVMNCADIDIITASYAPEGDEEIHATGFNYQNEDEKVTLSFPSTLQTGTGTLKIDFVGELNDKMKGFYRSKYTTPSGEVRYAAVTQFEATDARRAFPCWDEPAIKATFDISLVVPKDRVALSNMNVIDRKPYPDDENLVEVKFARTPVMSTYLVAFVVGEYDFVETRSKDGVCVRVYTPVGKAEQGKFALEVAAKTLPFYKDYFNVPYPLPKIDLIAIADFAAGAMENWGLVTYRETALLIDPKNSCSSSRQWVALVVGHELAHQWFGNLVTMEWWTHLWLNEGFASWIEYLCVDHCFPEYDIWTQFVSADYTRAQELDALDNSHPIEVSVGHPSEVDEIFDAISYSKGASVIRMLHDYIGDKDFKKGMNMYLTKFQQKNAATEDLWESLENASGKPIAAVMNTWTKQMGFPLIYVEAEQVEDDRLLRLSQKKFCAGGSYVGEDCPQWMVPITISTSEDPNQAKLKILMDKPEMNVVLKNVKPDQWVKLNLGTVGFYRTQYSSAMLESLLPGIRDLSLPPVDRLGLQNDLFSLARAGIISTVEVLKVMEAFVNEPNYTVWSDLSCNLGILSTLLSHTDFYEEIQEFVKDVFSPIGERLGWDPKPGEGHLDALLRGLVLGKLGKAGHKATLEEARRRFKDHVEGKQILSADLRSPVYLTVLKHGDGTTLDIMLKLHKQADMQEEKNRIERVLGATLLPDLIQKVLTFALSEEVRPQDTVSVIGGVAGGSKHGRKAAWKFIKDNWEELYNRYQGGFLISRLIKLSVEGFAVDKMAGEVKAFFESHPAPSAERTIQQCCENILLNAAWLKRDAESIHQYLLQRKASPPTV

[6] = tested on: SZ95 cells; test: Inhibition of DNA synthesis and proliferation of immortalized human sebocytes SZ95; format: cell-based; details: EGF-stimulated SZ95 sebocytes, tritium thymidine incorporation, read-out: Supp. DNA Synt. SZ95 IC50
Experimental: The immortalized human sebocyte line SZ95 was provided by Prof. C Zouboulis [C C Zouboulis, H Seltmann, H Neitzel, C E Orfanos, Establishment and characterization of an immortalized human sebaceous gland cell line (SZ95). J. Invest. Dermatol. 113(6):1011-1020 (1999), the entire disclosure of which is incorporated by reference herein]. These adherent growing cells were cultured in serum-free Sebomed Complete (Biochrom). Recombinant EGF was added in order to stimulate DNA synthesis and proliferation of the SZ95 cells. Test items were added in concentrations from 0.1 up to 100 μM.
The DNA synthesis of proliferating cells was detected by incorporation of radiolabelled tritium thymidine (3HT) and counting at a beta counter. Based on these raw data the relative proliferation response in relation to cells cultured in the absence of test compound (100% control) was calculated. IC50 values of proliferation suppression were assessed by computer-assisted graphical evaluation.

[7] = tested on: NHEK cells; test: Inhibition of DNA synthesis and proliferation of normal human epidermal keratinocytes (NHEK); format: cell-based; details: EGF-stimulated NHEK, BrdU incorporation, read-out: Supp. DNA Synt. NHEK IC50
Experimental: NHEK cells (primary cells from person) were purchased from PromoCell. For these assay the adherent cells were cultured in serum-free Keratinocyte Growth medium 2 supplemented with epidermal growth factor (EGF) and bovine pituitary extract for 48 hours in flat-bottom microtiter plates. EGF stimulates the DNA synthesis and proliferation of these cells. Test items were added in concentrations from 0.1 up to 100 μM.
The DNA synthesis was assessed by incorporation of bromdesoxyuridine (BrdU) and subsequent detection of BrdU by ELISA technique. Based on these raw data the relative proliferation response in relation to cells cultured in the absence of test compound (100% control) was calculated. IC50 values of proliferation suppression were assessed by computer-assisted graphical evaluation.

| Compound | meas. IC50 (APN) [1] | IC50 ([2]; Homo sapiens, T-cell, 48 h) | meas. IC50 (DPIV) [3] | meas. IC50 (DP8/9) [4] | meas. IC50 (cAAP) [5] | IC50 ([6]; Homo sapiens) | IC50 ([7]; Homo sapiens, NHEK, 48 h) | IC50 [5] | IC50 ([2]; PHA-stimulated human T cells, 48 hours) | IC50 [6] | IC50 ([7]; 48 hours) | IC50 [1] | IC50 [3] | IC50 [4] |
| --- | --- | --- | --- | --- | --- | --- | --- | --- | --- | --- | --- | --- | --- | --- |
| COc1ccc(COCC(NC(=O)C(C)(C)C)C(OCc2ccc(OC)cc2)C(=O)NCC(C)(C)CNC(=O)CC(Cc2cc(F)ccc2F)NC(=O)C(C)(C)C)cc1 (stereo not drawn) [Compound C19.018] | no in- hibition | 3.3 µM | no in- hibition | no in- hibition | no in- hibition | 9.1 µM | 9.9 µM |  |  |  |  |  |  |  |
| CCCCCC(=O)NC(CC(=O)NCC(C)(C)CNC(=O)C(O)C(COCc1ccccc1)NC(=O)CCCCC)Cc1cc(F)ccc1F (stereo not drawn) [Compound C19.012] | no in- hibition | 12.2 µM | no in- hibition | no in- hibition |  | 28.6 µM | 17.5 µM | 0.51 µM |  |  |  |  |  |  |
| CC(C)(C)OC(=O)NC(CCCCNC(=O)C(S)C(Cc1ccccc1)NC(=O)OC(C)(C)C)C(=O)N1CCSC1 (stereo not drawn) [Compound C22.002] | no in- hibition | 54.1 µM | no in- hibition | no in- hibition |  | ≥ 200 µM | 85.2 µM | 1 µM |  |  |  |  |  |  |
| CC(C)(CNC(=O)CC(Cc1cc(F)ccc1F)NC(=O)OC(C)(C)C)CNC(=O)C(O)C(COCc1ccccc1)NC(=O)OC(C)(C)C (stereo not drawn) [Compound C19.004] | no in- hibition |  | no in- hibition | no in- hibition | no in- hibition |  |  |  | 9.7 µM | 18.3 µM | 19.8 µM |  |  |  |
| NC(CCCCNC(=O)C(S)C(N)Cc1ccccc1)C(=O)N1CCSC1 (stereo not drawn) [Compound C22.003] |  | 30.2 µM |  |  |  | 75.2 µM | 38.9 µM | 3.5 µM |  |  |  | 3.79 µM | 0.032 µM | 0.34 µM |
| CC(C)(CNC(=O)CC(Cc1cc(F)ccc1F)NC(=O)C(C)(C)C)CNC(=O)C(O)C(COCc1ccccc1)NC(=O)C(C)(C)C (stereo not drawn) [Compound C19.016] | no in- hibition | 15.7 µM | no in- hibition | no in- hibition | no in- hibition | 49.2 µM | 37.9 µM |  |  |  |  |  |  |  |
| CCOC(=O)NC(CC(=O)NCC(C)(C)CNC(=O)C(O)C(COCc1ccccc1)NC(=O)OCC)Cc1cc(F)ccc1F (stereo not drawn) [Compound C19.009] |  | 33.9 µM | no in- hibition | no in- hibition |  | 59.1 µM | 100 µM | 3.4 µM |  |  |  | 5.9 µM |  |  |
| CCCCCC(=O)NC(CC(=O)NCC(C)(C)CNC(=O)C(OC(=O)CCCCC)C(COCc1ccccc1)NC(=O)CCCCC)Cc1cc(F)ccc1F (stereo not drawn) [Compound C19.014] | no in- hibition | 19.8 µM | no in- hibition | no in- hibition | no in- hibition | ≥ 149 µM | 2.97 µM |  |  |  |  |  |  |  |
| CC(C)NC(CC(=O)NCC(C)(C)CNC(=O)C(O)C(N)COCc1ccccc1)Cc1cc(F)ccc1F (stereo not drawn) [Compound C19.029] |  | 29.4 µM |  |  |  | 92.7 µM | 34.8 µM | 0.33 µM |  |  |  | 0.59 µM | 14.5 µM | 24.3 µM |
| COc1ccc(COCC(NC(=O)OC(C)(C)C)C(O)C(=O)NCC(C)(C)CNC(=O)CC(Cc2cc(F)ccc2F)NC(=O)OC(C)(C)C)cc1 (stereo not drawn) [Compound C19.006] | no in- hibition | 6.2 µM | no in- hibition | no in- hibition |  | 18.5 µM | 24.1 µM | 10.2 µM |  |  |  |  |  |  |
| CC(C)(C)OC(=O)NC(CCCCNC(=O)C(O)C(Cc1ccccc1)NC(=O)OC(C)(C)C)C(=O)N1CCSC1 (stereo not drawn) [Compound C21.002] | no in- hibition | 55.1 µM | no in- hibition | no in- hibition | no in- hibition | 61.6 µM | 49.3 µM |  |  |  |  |  |  |  |
| CC(C)(CNC(=O)CC(Cc1cc(F)ccc1F)NC(=O)OCc1ccccc1)CNC(=O)C(O)C(COCc1ccccc1)NC(=O)OCc1ccccc1 (stereo not drawn) [Compound C19.008] | no in- hibition | 5.7 µM | no in- hibition | no in- hibition |  | 8.6 µM | 6.77 µM | 5.8 µM |  |  |  |  |  |  |
